The values that follow come from patent US4459232A, “Imidazo[1,2-c][1,3]benzodiazepines” (Ciba-Geigy Corporation, priority 1982, dated 1984).

The test system of data set [1] is rats. Kind of data set: conditioned avoidance behavior (lever press to avoid foot shock) in rats. The data set is classed as in vivo. Particulars: Rattus norvegicus, oral, read-out: oral dose that disrupts avoidance behavior (decreases avoidance responses). The procedure: (§1) Each lever press postpones the shock for 30 seconds. Whenever the animal fails to press the lever once within said period, brief (0.5 sec.) shocks are delivered at 15 second intervals until the animal again presses the lever. Under control conditions the animals press the lever at a moderately steady rate and seldom receive more than five or six shocks during a 25-minute (rats) and up to 4-hour experimental session. Said compounds evaluated for neuroleptic activity, are administered to the animals 30, 90, 210 minutes prior to the experimental session and block the learned conditioned avoidance behavior, manifested by a decrease in avoidance responding with a marked increase in shocks taken by the animal. Both the avoidance responses and failures (shocks received) are recorded separately for evaluation.
(§2) Indicative of the antipsychotic utility of the compounds of this invention, e.g., the compound of example 1, namely 5-(4-methyl-1-piperazinyl)-11H-imidazo[1,2-c][1,3]benzodiazepine disrupts avoidance behavior, e.g. decreases avoidance responses in rats and monkeys at an oral dose of 30 mg/kg or lower.

The test system of data set [2] is monkeys. As to the kind of experiment: conditioned avoidance behavior (lever press to avoid foot shock) in monkeys. The data set is classed as in vivo, squirrel monkey. Particulars: Primates, oral, read-out: oral dose that disrupts avoidance behavior (decreases avoidance responses). The procedure:
as §1, §2

The target of data set [3] is histamine activation of adenylate cyclase. Kind of data set: inhibition of histamine activation of adenylate cyclase in vesicles of guinea pig cerebral cortex. The format is biochemical. The settings on record: 50 micromolar histamine. The procedure: Finally, said antihistaminic properties can be shown in vitro, e.g., according to Chasin et al., J. Neurochem. 22, 1031 (1974). Vesicles from a cell free preparation of guinea pig cerebral cortex are preincubated with ^3 H-adenine to form endogenous ^3 H-adenosine triphosphate. The vesicles are then incubated with 50 micromolar histamine to activate ^3 H-cyclic adenosine monophosphate synthesis in the absence or presence of the test compound at a concentration between 0.01 and 100 micromolar. When said compound is active, it inhibits the histamine activation of adenylate cyclase. The IC50 represents the concentration at which histamine activation is inhibited by 50%.

Data set [4] deals with monkey. Kind of data set: extrapyramidal side effects (dyskinesias, dystonias) in the monkey. The format is in vivo.
Data set [5] concerns α-adrenergic. Kind of data set: α-adrenergic blocking activity in vitro. The data set is classed as biochemical.

On to `CN1CCN(C2=Nc3ccccc3Cc3nccn32)CC1` [example 1, 5-(4-methyl-1-piperazinyl)-11H-imidazo[1,2-c][1,3]benzodiazepine], for which the minimal effective dose in data set [1] and in data set [2] was not above 30 mg/kg each time. Besides, in data set [3], the IC50 was approximately 1000 nM. The “extrapyramidal side effects, e.g. dyskinesias and dystonias” value in data set [4] is reported as “essentially free of extrapyramidal side effects”. Further, in data set [5], the α-adrenergic blocking activity entry is “only minimal α-adrenergic blocking activity”.

Broadly, the IC50 is the point on the concentration scale where inhibition reaches its midpoint.
